# In patent US20240174692A1, “PYRIMIDINE AROMATIC RING COMPOUNDS” (Medshine Discovery Inc., priority 2021, published 2024):
# Assays:
# plasma protein [1] = assay: Plasma protein binding (PPB), equilibrium dialysis, H plasma; format: in vitro ADME, human; settings: 2 μM, 4 hr dialysis
# Protocol: (§1) Assay procedure: 995 μL of blank plasma of various genera were weighed, and 5 μL of assay compound working solution (400 μM) or warfarin working solution (400 μM) was added so that the final concentrations of the assay compound and warfarin in plasma sample were each 2 μM. The samples were mixed thoroughly. The final concentration of DMSO (the organic phase) was 0.5%. 50 μL of the plasma samples of the assay compound and warfarin were pipetted to a sample receiving plate (in triplicate), and the corresponding volume of corresponding blank plasma or buffer was added immediately, so that the final volume in each sample well was 100 μL, wherein the volume ratio of plasma:dialysis buffer was 1:1. 500 μL of stop solution was then added to these samples. These samples were used as T0 samples for determination of recovery and stability. […] All samples were subjected to protein precipitation, and then analyzed by LC/MS/MS. Bound rate and recovery rate of protein were calculated using the following formulae: % Unbound=100*F/T % Bound=100−% Unbound, % Recovery=100*(F+T)/T0 (wherein F is the peak area ratio of the compound in the dialysate after 4 h of dialysis; T is the peak area ratio of the compound in the plasma after 4 h of dialysis; T0 is the peak area ratio of the compound in the plasma sample at time zero).
# plasma protein [2] = assay: Plasma protein binding (PPB), equilibrium dialysis, M plasma; format: in vitro ADME, mouse; settings: 2 μM, 4 hr dialysis
# Protocol: as §1
# [3] = Pharmacokinetic evaluation of compounds in rats; format: in vivo; settings: rat, plasma, SD rats
# Protocol: Purpose of assay: To assay the pharmacokinetic data of the compounds in SD rats in vivo.
# (§2) Compounds were mixed with vehicle 5% DMSO/95% (10% HP-β-CD in water), and the mixture was vortexed and sonicated to give a clear solution of 0.3 mg/mL. The candidate compound solutions were administered intravenously. Whole blood was collected for a certain period of time to prepare plasma. The drug concentration was analyzed by LC-MS/MS method, and pharmacokinetic parameters were calculated.
# as §2, with “a” for “a clear”, “7” for “0.3”, “orally.” for “intravenously.”
# plasma protein [4] = assay: Plasma protein binding (PPB), equilibrium dialysis, R plasma; format: in vitro ADME, rat; settings: 2 μM, 4 hr dialysis
# Protocol: as §1
# plasma protein [5] = assay: Plasma protein binding (PPB), equilibrium dialysis, D plasma; format: in vitro ADME, dog; settings: 2 μM, 4 hr dialysis
# Protocol: as §1
# [6] = Pharmacokinetic evaluation of compounds in mice; format: in vivo, CD-1 mice; settings: CD-1 male mice
# Protocol: Purpose of assay: To assay the pharmacokinetic data of the compounds in CD-1 mice in vivo.
# (§3) Compounds were mixed with vehicle 5% DMSO/95% (10% HP-β-CD aqueous solution), and the mixture was vortexed and sonicated to give 0.2 mg/mL-0.3 mg/mL clear solutions. CD-1 male mice aged 7 to 10 weeks were selected, and the candidate compound solution was administered intravenously. Whole blood was collected for a certain period of time to prepare the plasma. The drug concentration was analyzed by LC-MS/MS method and pharmacokinetic parameters were calculated by Phoenix WinNonlin software (Pharsight, USA).
# as §3, with “in water),” for “aqueous solution),”, “1.6 mg/mL to 4.0” for “0.2 mg/mL-0.3”, “orally administered.” for “administered intravenously.”, “prepare” for “prepare the”, “method,” for “method”
# p-ERK in GP2D cells = assay: Assay of p-ERK inhibition in GP2D cells (HTRF); format: cell-based; settings: Homo sapiens, 1 hour incubation
# Protocol: 2. Assay Process • 1) GP2D cells were inoculated in a transparent 96-well cell culture plate, and each well contained 80 μL of cell suspension and 8000 cells. The cell plate was inoculated in a carbon dioxide incubator at 37° C. overnight; • 2) 2 μL of the compound was weighed and added to 78 μL of the cell medium. After the mixture was mixed thoroughly, 20 μL of the solution of compound was weighed and added to the corresponding well of the cell plate. The cell plate was placed back to the carbon dioxide incubator and incubated for another 1 hour; • 3) After completion of the incubation, the cell supernatant was discarded. 50 μL of 1× cell lysate was added to each well. The mixture was incubated with shaking at room temperature for 30 minutes; • 4) Phospho-ERK1/2 Eu Cryptate antibody and Phospho-ERK1/2 d2 antibody were diluted 20-fold with detection buffer; • 5) 16 μL of cell lysate supernatant was weighed and added into each well of a new 384 white microwell plate, and then 2 μL of the diluted solution of Phospho-ERK1/2 Eu Cryptate antibody and 2 μL of the diluted solution of Phospho-ERK1/2 d2 antibody dilution were added. The mixture was incubated at room temperature for at least 4 hours; • 6) After completion of the incubation, HTRF was read with multi-label analyzer: excitation: 320 nm, emission: 615 nm, 665 nm; • 7). IC50 of the compounds to be assayed was calculated.
# plasma protein [7] = assay: Plasma protein binding (PPB), equilibrium dialysis, C plasma; format: in vitro ADME, monkey; settings: 2 μM, 4 hr dialysis
# Protocol: as §1
smiles,measurement,setting,value
C#Cc1c(F)ccc2cc(N)cc(-c3ccc4c(N5CC6CCC(C5)N6)nc(OC[C@@]56CCCN5C[C@H](F)C6)nc4c3F)c12 [Compound 014],Unbound PPB H,plasma protein [1],18.5%
same,Unbound PPB M,plasma protein [2],4.5%
same,AUC(0-inf),"[3]; IV, 1.56 mg/kg",0.15 µM·h
same,C0,"[3]; IV, 1.56 mg/kg",971 nM
same,Vd,"[3]; IV, 1.56 mg/kg",5.89 L/kg
same,clearance,"[3]; IV, 1.56 mg/kg",271 mL/min/kg
same,half-life,"[3]; IV, 1.56 mg/kg",0.56 h
same,AUC(0-inf),"[3]; PO, 31.7 mg/kg",0.427 µM·h
same,Cmax,"[3]; PO, 31.7 mg/kg",182 nM
same,bioavailability,"[3]; PO, 31.7 mg/kg",12.5%
same,half-life,"[3]; PO, 31.7 mg/kg",6.8 h
same,Unbound PPB R,plasma protein [4],2.0%
same,Unbound PPB D,plasma protein [5],3.0%
same,AUCu,"[6]; PO, 16.0 mg/kg, AUCu = AUC0-inf *Unbound PPB (Mouse)",0.0671 µM·h
same,AUC(0-inf),"[6]; mouse, plasma, IV, 1.28 mg/kg",0.565 µM·h
same,C0,"[6]; mouse, plasma, IV, 1.28 mg/kg",953 nM
same,Vd,"[6]; mouse, plasma, IV, 1.28 mg/kg",25.6 L/kg
same,clearance,"[6]; mouse, plasma, IV, 1.28 mg/kg",77 mL/min/kg
same,half-life,"[6]; mouse, plasma, IV, 1.28 mg/kg",5.7 h
same,AUC(0-inf),"[6]; mouse, plasma, PO, 16.0 mg/kg",1.49 µM·h
same,Cmax,"[6]; mouse, plasma, PO, 16.0 mg/kg",524 nM
same,bioavailability,"[6]; mouse, plasma, PO, 16.0 mg/kg",20.5%
same,half-life,"[6]; mouse, plasma, PO, 16.0 mg/kg",6 h
same,IC50,p-ERK in GP2D cells,0.43 nM
same,Unbound PPB C,plasma protein [7],2.8%
